Laboratory results from publication PMC3229523, “Identification of Lactoferricin B Intracellular Targets Using an Escherichia coli Proteome Chip” (PLoS ONE, 2011).
“Also recorded” adds a separate entry of the source. Ends that are not written are not given here. * marks the point of attachment. Biotin = O=C1N[C@H]2[C@H](CS[C@H]2CCCCC(=O)*)N1

Columns and labels:
[1] = test system: HyaF; experiment: Fluorescence polarization assay, HyaF; type: binding, E. coli
Text: (§1) FP assays, investigations of the binding between two molecules in a homogeneous aqueous environment, were used to validate the identified 153 proteins. […] If a fluorophore only binds to a small molecule, such as peptide, the rotation of the complex is fast and the light emits in a different plane of polarization. Therefore, the degree of polarization is low. However, once a fluorophore binds to a large molecule, the bound complex is stimulated with polarized light. The light emits in the same polarized plane, and the complex is maintained in the same plane of polarization, causing an increase in the degree of polarization [22]–[24]. The amount of molecules binding to a fluorophore influences the degree of polarization. In this study, LfcinB was labeled with DyLight™ 549 as a reference value. Once the protein bound to LfcinB, like a fluorophore binds to a large molecule, a high degree of polarization is expected.
(§2) Before the assays, LfcinB was labeled with DyLight™ 549 and tested proteins were quantified with a Pierce® bicinchoninic acid (BCA™) protein assay (Thermo). To label the LfcinB, DyLight™ 549-NHS ester and LfcinB (68∶1, mole/mole) were mixed in PBS at room temperature for 1 h, a D-Salt™ polyacrylamide desalting column (Thermo) was used to remove excess dye and the labeling efficiency of the eluted solution was calculated. […]

[2] = test system: other 15 knockout strains; experiment: Knockout assay, other 15 knockout strains; type: cell-based, E. coli K-12; settings: 32 µM LfcinB, LB medium, 37°C
Protocol: The E. coli K-12 BW25113 (isogenic parent) strain and the 16 knockout strains were obtained from the E. coli Genetic Resources at the Coli Genetic Stock Center (CGSC) at Yale University. The strains were inoculated into LB medium, and incubated at 37°C with shaking. After 16 h of incubation, the cultures were diluted to approximately 10^7 CFU/ml with LB medium. Thirty-two µM of LfcinB were then added to the cultures in a 96-well plate. PBS was used as a negative control. Cultures with LfcinB or PBS were then incubated at 37°C with shaking in a microplate reader and the growth was observed by measuring the OD595 value every 20 min for 7 h 20 min.

[3] = test system: E. coli K-12 MG1655; experiment: E. coli growth inhibition (growth curves, OD595); type: cell-based; settings: 22.4 µM, approx. 10^7 CFU/ml, LB medium, 37°C with shaking, OD595 every 20 min for 7 h 20 min, PBS negative control, Figure 2
Protocol: The E. coli K-12 MG1655 strain was first inoculated into LB medium and incubated at 37°C with shaking for 16 h. After incubation, the culture was diluted to approximately 10^7 CFU/ml using LB medium. Then, 22.4 µM of N-terminal biotinylated LfcinB (Kelowna Inc.), LfcinB (Kelowna Inc.) or biotin (Thermo) were individually added to the diluted cultures in a 96-well plate. PBS was used as a negative control. Finally, each compound or PBS with E. coli was incubated at 37°C with shaking and the growth curves were observed by measuring the OD595 value every 20 min for 7 h 20 min in a microplate reader (Synergy 2, BioTek®).

[4] = test system: MalP; experiment: Fluorescence polarization assay, MalP; type: binding, E. coli; settings: 100 nM DyLight 549-labeled LfcinB; protein 0.025-0.4 µM; data not shown
Text: as §1, §2

## Lactoferricin B (Biotin-FKCRRWQWRMKKLGAPSITCVRRAF; ends and bridges not checked) [LfcinB]
[1]; 100 nM DyLight 549-labeled LfcinB, protein 0.025-0.4 µM, PBS, 0.005% BSA, 0.01% Triton X-100, room temperature, 1 h, ex 540 nm, em 590 nm, Figure 5A
  degree of polarization vs BSA: higher polarization than the negative control
[1]; HyaF, two-fold dilution 0.4 µM to 0.025 µM, 100 nM labeled LfcinB
  concentration dependence of polarization: increased with increasing concentrations of these 4 proteins
[2]
  growth with LfcinB: the growth was inhibited by LfcinB
[3]
  growth curves / inhibition of E. coli growth: exhibited the same inhibition of E. coli growth; also recorded: exhibit the same antibacterial activity
[4]
  binding to MalP: confirmed to bind to LfcinB
